The values below come from patent publication US6492381B1, “Tricyclic carbamate compounds useful for inhibition of G-protein function and for treatment of proliferative diseases” (Schering Corp., priority 1993, dated 2002).

Where two headings read alike, the source gives them in different places.

In experiment [1] the test system is Normal human HEPM fibroblasts. Nature of the experiment: Cell Mat assay: inhibition of normal cell growth. It is filed as cell-based. The note with it: mIC50, normal cell monolayer. As to the method:
(§1) Normal human HEPM fibroblasts were planted in 3.5 cm dishes at a density of 5×10^4 cells/dish in 2 ml growth medium, and incubated for 3-5 d to achieve confluence. Medium was aspirated from each dish and the indicator tumor cells, T24-BAG4 human bladder carcinoma cells expressing an activated H-ras gene, were planted on top of the fibroblast monolayer at a density of 2×10^3cells/dish in 2 ml growth medium, and allowed to attach overnight. Compound-induced colony inhibition was assayed by addition of serial dilutions of compound directly to the growth medium 24 h after tumor cell planting, and incubating cells for an additional 14 d to allow colony formation. Assays were terminated by rinsing monolayers twice with phosphate-buffered saline (PBS), fixing the monolayers with a 1% glutaraldehyde solution in PBS, then visualizing tumor cells by staining with X-Gal (Price, J., et al., Lineage analysis in the vertebrate nervous system by retrovirus-mediated gene transfer, Proc. Natl. Acad. Sci.84, 156-160(1987)). […] Both IC50 values were obtained by determining the density of tumor cells and mat cells by visual inspection and enumeration of cells per colony and the number of colonies under the microscope. The therapeutic index of the compound was quantitatively expressed as the ratio of mIC50/tIC50, with values greater than one indicative of tumor target specificity.

For experiment [2], the system named is T24-BAG4 human bladder carcinoma cells expressing an activated H-ras gene. Nature of the experiment: Cell Mat assay: inhibition of tumor cell growth. It is filed as cell-based. The note with it: for IC50: tIC50. Here is the method:
as §1

The target in experiment [3] is T1, farnesyl protein transferase (FPT) (Rattus norvegicus, UniProt Q02293+Q04631).
T1 construct: were partially purified from rat brain by ammonium sulfate fractionation followed by Q-Sepharose; from tissue; host or cells: rat brain
In words: In vitro enzyme assay: inhibition of farnesyl protein transferase. It is filed as biochemical. As to the method: 1. In vitro enzyme assays: Inhibition of farnesyl protein transferase and geranylgeranyl protein transferase.
Human farnesyl protein transferase was also expressed in E. coli, using cDNA clones encoding both the α and β subunits. […] Two forms of val^12-Ha-Ras protein were prepared as substrates for these enzymes, differing in their carboxy terminal sequence. One form terminated in cysteine-valine-leucine-serine (Ras-CVLS) the other in cystein-valine-leucine-leucine (Ras-CVLL). Ras-CVLS is a substrate for the farnesyl protein transferase while Ras-CVLL is a substrate for geranylgeranyl protein transferase I. The cDNAs encoding these proteins were constructed so that the proteins contain an amino-terminal extension of 6 histidine residues. Both proteins were expressed in Escherichia coli and purified using metal chelate affinity chromatography. The radiolabelled isoprenyl pyrophosphate substrates, [^3H]farnesyl pyrophosphate and [^3H]geranylgeranyl pyrophosphate, were purchased from DuPont/New England Nuclear.
The reaction was allowed to proceed for 30 minutes at room temperature and then stopped with 0.5 ml of 4% sodium dodecyl sulfate (SDS) followed by 0.5 ml of cold 30% trichloracetic acid (TCA). Samples were allowed to sit on ice for 45 minutes and precipitated Ras protein was then collected on GF/C filter paper mats using a Brandel cell harvester. […] Percent inhibition was calculated relative to the DMSO vehicle control.

[4] abbreviates: Ras-CVLS farnesylation, partially purified rat brain FPT, read-out: FPT IC50.

As usually defined, the IC50 is the point on the concentration scale where inhibition reaches its midpoint. As for `CCOC(=O)N1CCC(=C2c3ccc(Cl)cc3CCc3ccc[n+]([O-])c32)CC1` [Compound 515.00, Ethyl 4-(8-chloro-5,6-dihydro-11H-benzo[5,6]cyclohepta[1,2-B]pyridin-11-ylidene)-1-piperidinecarboxylate N-oxide], the IC50 was over 100 µM in experiment [1], 75 µM in experiment [2] and 37.6 µM in experiment [3] (setting [4]). In experiment [2], the “selective antiproliferative activity against Ras-transformed cells versus normal cells” value (shortened to “selective antiproliferative activity”) is “little”. With `CCOC(=O)N1CCC(F)(C2c3ccc(Cl)cc3CCc3cccnc32)CC1` (stereo not drawn) [Compound 520.00], the IC50 in experiment [3] (setting [4]) is 10.4 µM. Take `CCOC(=O)N1CCC(=C2c3ccc(Br)cc3CCc3cccnc32)CC1` [Compound 540.00]: in experiment [3] (setting [4]), the IC50 was found to be 7 µM.

In the case of `CCOC(=O)N1CCC(=C2c3ccc(Cl)cc3CCc3cc(C)cnc32)CC1` [Compound 545.00], the IC50 in experiment [3] (setting [4]) turned out to be 7.1 µM. Still for that read-out and setting: the figure for `CCOC(=O)N1CCC(=C2c3cc(Cl)c(Cl)cc3CCc3cccnc32)CC1` [Compound 555.00] is 37.8 µM; for `COC(=O)N1CCC(=C2c3ccc(Cl)cc3CCc3cccnc32)CC1` [Compound 560.00] it is 17.6 µM.

Take `O=C(OCc1ccccc1)N1CCC(=C2c3ccc(Cl)cc3CCc3cccnc32)CC1` [Compound 570.00]: the IC50 in experiment [3] (setting [4]) stood at 8 µM. Still for that read-out and setting: next, `CCCCCCOC(=O)N1CCC(=C2c3ccc(Cl)cc3CCc3cccnc32)CC1` [Compound 590.00]: 80 µM; `CCOC(=O)N1CCC(=C2c3ccc(Cl)cc3CCc3c(Cl)ccnc32)CC1` [Compound 596.00]: 10.5 µM; `CCOC(=O)N1CCN([C@@H]2c3ccc(Cl)cc3CCc3cccnc32)CC1` [Compound 602.00, (+) Ethyl 4-(8-chloro-6,11-dihydro-11H-benzo[5,6]-cyclohepta[1,2-b]pyridin-11(R)-yl)-1-piperazine Carboxylate]: 34.1 µM. For `CCOC(=O)N1CCN([C@H]2c3ccc(Cl)cc3CCc3cccnc32)CC1` [Compound 604.00, (−) Ethyl 4-(8-chloro-6,11-dihydro-11H-benzo[5,6]-cyclohepta[1,2-b]pyridin-11(S)-yl)-1-piperazinecarboxylate], the IC50 in experiment [3] (setting [4]) came out at 10.5 µM. Turning to `O=C(OCc1ccccc1)N1CCN(C2c3ccc(Cl)cc3CCc3cccnc32)CC1` (stereo not drawn) [Compound 614.00, Phenylmethyl 4-(8-chloro-6,11-dihydro-5H-benzo[5,6]-cyclohepta[1,2-b]pyridin-11-yl)-1-piperazinecarboxylate], the IC50 in experiment [1] (Homo sapiens, Fibroblast) was over 50 µM; in experiment [2] (Homo sapiens), 50 µM; in experiment [3] (setting [4]), over 20 µM. Moreover, the “selective antiproliferative activity” value in experiment [2] is “little”. In the case of `CCOC(=O)N1CCC(C2c3cc(CC)c(Cl)cc3C=Cc3cccnc32)CC1` (stereo not drawn) [Compound 622.00, 8-chloro-11-(1-ethoxycarbonyl-4-piperidinyl)-9-ethyl-11H-benzo[5,6]cyclohepta[1,2-b]pyridine], the IC50 in experiment [3] (setting [4]) was found to be 10.5 µM.

As to `CCOC(=O)N1CCC(C2c3ccc(Cl)cc3C=Cc3c(Cl)ccnc32)CC1` (stereo not drawn) [Compound 636.00], the IC50 in experiment [3] (setting [4]) is 7.4 µM.

Regarding `CCOC(=O)N1CCC(=C2c3ccc(Cl)cc3CCc3cc(Br)cnc32)CC1` [Compound 642.00], the IC50 in experiment [1] (Homo sapiens, Fibroblast) was over 50 µM; in experiment [2] (Homo sapiens), 50 µM; in experiment [3] (setting [4]), 2.17 µM. Besides, the “selective antiproliferative activity” value in experiment [2] is reported as “little”. `O=C(Oc1cccnc1)N1CCC(=C2c3ccc(Cl)cc3CCc3c(Cl)ccnc32)CC1` [Compound 644.00, 3-pyridyl 4-(4,8-dichloro-5,6-dihydro-11H-benzo[5,6]cyclohepta[1,2-b]pyridin-11-ylidene)-1-piperidine Carboxylate]: the IC50 in experiment [3] (setting [4]) was 1.03 µM. One may read the inhibition as how much of the control response was suppressed. A high value points to strong suppression. For `CCOC(=O)N1CCC(=C2c3ccc(Cl)cc3CCc3c(O)ccnc32)CC1` [Compound 646.00, Ethyl 4-[4-hydroxy-8-chloro-5,6-dihydro-11H-benzo[5,6]cyclohepta[1,2-b]pyridin-11-ylidene]-1-piperidine Carboxylate], the inhibition at 15 µM in experiment [3] (@ 15 μM) is 30%. Take `O=C(Oc1cccnc1)N1CCC(=C2c3ccc(Cl)cc3CCc3c(O)ccnc32)CC1` [Compound 648.00, 3-pyridyl 4-[4-hydroxy-8-chloro-5,6-dihydro-11H-benzo[5,6]cyclohepta[1,2-b]pyridin-11-ylidene]-1-piperidine Carboxylate]: the IC50 in experiment [3] (setting [4]) is 6.7 µM. As to `O=C(Oc1cccnc1)N1CCC(=C2c3ccc(Cl)cc3CCc3c(On4nnc5ccccc54)ccnc32)CC1` [Compound 656.00, 3-pyridyl 4-[4-[(1H-benzotriazol-1-yl)oxy]-8-chloro-5,6-dihydro-11H-benzo[5,6]cyclohepta[1,2-b]pyridin-11-ylidene[-1-piperidine Carboxylate], in experiment [3] (setting [4]), the IC50 stood at 0.71 µM. Take `CCOC(=O)N1CCC(=C2c3ccc(Cl)cc3CCc3cc(OC)cnc32)CC1` [Compound 658.00, 8-chloro-3-methoxy-11-(1-ethoxycarbonyl-4-piperidylidene)-6,11-dihydro-5H-benzo[5,6]-cyclohepta[1,2-b]pyridine]: the IC50 in experiment [3] (setting [4]) was found to be 11.5 µM.

Regarding `CCOC(=O)N1CCC(=C2c3ccc(Cl)cc3CCc3c2ncc(Br)c3O)CC1` [Compound 660.00, Ethyl 4-[3-bromo-4-hydroxy-8-chloro-5,6-dihydro-11H-benzo[5,6]cyclohepta[1,2-b]pyridin-11-ylidene]-1-piperidine Carboxylate], the inhibition at 13 µM in experiment [3] (@ 13 μM) was 22%. As for `O=C(Oc1cccnc1)N1CCC(=C2c3ccc(Cl)cc3CCc3c2ncc(Br)c3O)CC1` [Compound 662.00, 3-pyridyl 4-[3-bromo-4-hydroxy-8-chloro-5,6-dihydro-11H-benzo[5,6]cyclohepta[1,2-b]pyridin-11-ylidene]-1-piperidine Carboxylate], in experiment [3] (setting [4]), the IC50 was determined as 3.8 µM. As to `O=C(Oc1cccnc1)N1CCC(=C2c3ccc(Cl)cc3C=Cc3cccnc32)CC1` [Compound 664.00], the IC50 in experiment [3] (setting [4]) was 1.46 µM.

Take `CCOC(=O)N1CCC(=C2c3ccc(Cl)cc3C=Cc3cccnc32)CC1` [Compound 666.00]: the IC50 in experiment [3] (setting [4]) came to 10.8 µM. Turning to `O=C(Oc1ccc[n+]([O-])c1)N1CCN(C2c3ccc(Cl)cc3CCc3cccnc32)CC1` (stereo not drawn) [Compound 800.00], the IC50 in experiment [3] (setting [4]) was found to be 3.7 µM. With `O=C(Oc1ccc[n+]([O-])c1)N1CCN(C2c3ccc(Cl)cc3CCc3cc(Br)cnc32)CC1` (stereo not drawn) [Compound 801.00], in experiment [3], the midpoint of inhibition, the IC50, lay at 0.28 µM.

On to `CN1CCC(OC(=O)N2CCN(C3c4ccc(Cl)cc4CCc4cccnc43)CC2)CC1` (stereo not drawn) [Compound 802.00], for which, in experiment [3] ((1.3), the values are: FPT inhibition at 1.3 µM), the FPT inhibition, second line of the FPT IC50 (μM) column came out at 35%. Besides, in experiment [3] (setting [4]), the IC50 was over 1.3 µM. With `CN1CCCC(OC(=O)N2CCN(C3c4ccc(Cl)cc4CCc4cccnc43)CC2)C1` (stereo not drawn) [Compound 804.00], the IC50 in experiment [3] (setting [4]) was found to be 2.1 µM.

Turning to `CN1CCCC(OC(=O)N2CCN(C3c4ccc(Cl)cc4CCc4cc(Br)cnc43)CC2)C1` (stereo not drawn) [Compound 805.00], the IC50 in experiment [3] (setting [4]) worked out at 0.3 µM. Consider `O=C(Oc1ccccc1)N1CCN(C2c3ccc(Cl)cc3C=Cc3cccnc32)CC1` (stereo not drawn) [Example 32], for which the IC50 in experiment [1] (Homo sapiens, Fibroblast) came out at 25 µM; in experiment [2] (Homo sapiens), 25 µM; in experiment [3], 0.88 µM.
